Key:
human sdLDL = test: Copper-induced sdLDL oxidation, TBARS (Example 7); format: biochemical
Method: (§1) An experiment to study the antioxidant effect of EPA in LDL and small dense […] performed. […] Fenofibrate, gemfibrozil, and niacin were purchased from Sigma-Aldrich. […] Vitamin E was also incubated with sample aliquots as a positive control.

human LDL = test: Copper-induced oxidation of unfractionated LDL, TBARS (Example 7); format: biochemical
Method: as §1

[1] = system: rat renal glomerular endothelial cells; test: NO and ONOO^− release ex vivo from rat glomerular endothelial cells exposed to oxLDL and high glucose (Example 13); format: cell-based; conditions: oxLDL 11 mg/dL and glucose 300 mg/dL; treatment 1 hr at 10.0 μM; versus vehicle
Method: Healthy male Wistar Kyoto (WKY) rats, aged 7-9 weeks and weighing 250±20 g, were obtained from inbred colonies (National Institutes of Health, Bethesda, Md.). Animals were housed in a controlled environment that provided food and water ad libitum prior to the study. […] Animals were sacrificed and tissue samples obtained immediately for experimentation. All procedures were conducted in accordance with standard Institutional Animal Care and Use Committee guidelines and conformed to the Guide for the Care and Use of Laboratory Animals published by the US National Institutes of Health.
EPA and DHA were purchased from Sigma-Aldrich (St. Louis, Mo.) and solubilized in ethanol to 1.0 mM under nitrogen atmosphere. […] The calcium ionophore (Cal), A23187, was purchased from Sigma-Aldrich and prepared in aqueous buffer to 1.0 mM. All test compounds were further diluted in ethanol or aqueous buffer as needed.
Venous blood from healthy normolipidemic volunteers was collected into Na-EDTA (1 mg/mL blood) vacuum tubes after a 12-hour fast. […] The LDL fraction was dialyzed for 96 hours against PBS containing 0.3 mM EDTA and stored at 4° C. until experimental use.
LDL was oxidized according to the methods of Huber et al. 16 Briefly, the purified LDL fraction was dialyzed against Tris/NaCl Buffer (50 mM Tris in 0.15 M NaCl, pH 8.0) to remove EDTA. Additional buffer was added to adjust the protein concentration to 30 mg/mL. LDL oxidation was initiated with 20 μM CuSO4 and monitored spectrophotometrically (234 nm) over a period of 24 hours until complete. The oxLDL was then dialyzed at 4° C. with 4 L Tris buffer, filtered with a 0.22 µm filter, and stored under nitrogen at 4° C.
Immediately after sacrificing the rats, kidneys were removed, cut into […] sections and transferred to a separate organ chamber containing Dulbecco's phosphate buffered saline ([…]) and […] glucose at pH 7.4.
Concurrent measurements of NO and ONOO^− were performed on intact glomerular (cortical zone) endothelial cells using tandem electrochemical nanosensors, as previously described (FIG. 45).
The NO/ONOO^− nanosensor was positioned near the surface of the endothelial cells using a computer-controlled M3301 micromanipulator (x-y-z resolution of 0.2 μm) and microscope (both from World Precision Instruments, Berlin, Germany) fitted with a CD camera. Each analyte was measured from amperograms and standard calibration curves collected under maximum current. […] After establishing a background current, maximal NO and ONOO^− release was induced by injecting Cal into the organ chamber using a nanoinjector (World Precision Instruments, Berlin Germany). Changes in current (proportional to the molar concentrations of NO or ONOO^− released) were monitored continuously immediately following Cal stimulation.
Data are presented as mean+standard deviation (SD) for (N) separate samples or experiments. Differences between groups were analyzed using the unpaired, two-tailed Student's t-test (for comparisons between only two groups) or ANOVA followed by Student-Newman-Keuls multiple comparisons post hoc analysis (for comparisons between three or more groups). Only differences with probability values less than 0.05 were considered significant.

[2] = Glucose-induced membrane lipid peroxidation (LOOH, CHOD-iodide assay) in DLPC/cholesterol vesicles (Examples 4 and 5); format: biochemical; conditions: each at 1.0 μM; glucose 200 mg/dL; 96 hours
Method: Vitamin E (α-tocopherol) was also purchased from Sigma-Aldrich and prepared in ethanol at 1.0 mM (e=[…] at 294 nm) just prior to experimental use. […] All test compounds were further diluted in ethanol or aqueous buffer as needed. Glucose was prepared in saline buffer (0.5 mM HEPES, 154 mM NaCl, pH 7.3) at 11.0 mM (200 mg/dL). CHOD-iodide color reagent (stock) was prepared, with slight modification, as described by from El-Saadani et al. (J. […] Samples were shell-dried under nitrogen gas and placed under vacuum for 1 h to remove residual solvent. […] Lipid suspensions were then vortexed for 3 min at ambient temperature to form MLVs. All MLV samples were subjected to time-dependent autoxidation by incubating at 37° C. in an uncovered, shaking water bath. This method allows lipid peroxidation to occur gradually without requiring the use of exogenous initiators. Small aliquots (5-100 μL) of each sample were removed, immediately following MLV preparation (0 hour) and after exposing samples to oxidative conditions for 72 or 96 hour, and combined with 1.0 mL of activated CHOD-iodide color reagent. Aliquot volume was reduced with each successive time point to ensure that spectrophotometric readings were within the optimal adsorption range. Test samples were covered and incubated in darkness at room temperature for at least 4 hr. Sample absorbances were then measured against a CHOD blank at 365 nm using a Beckman DU-640 spectrophotometer. The CHOD colorimetric assay is based on the oxidation of iodide (I^−) by lipid hydroperoxide (LOOH) to form triiodide (I3^−), the quantity of which is directly proportional to the amount of LOOH present in the lipid sample. The molar absorptivity (ε) of I3^− is 2.46×10^4 M^−1 cm^−1 at 365 nm. An experiment was conducted to compare the ability of EPA to prevent lipid hydroperoxide formation in model membranes treated with glucose to two other 20-carbon fatty acids: eicosanoic acid (“EA,” also referred to as arachidic acid, C20:0) and eicosatrienoic acid (“ETE,” C20:3, n-3). All MLV samples were subjected to time-dependent autoxidation by incubating at 37° C. in an uncovered, shaking water bath. This method allows lipid peroxidation to occur gradually without requiring the use of exogenous initiators. Small aliquots (5-100 μL) of each sample were removed, immediately following MLV preparation (0 hr) and after exposing samples to oxidative conditions for 72 or 96 hr, and combined with 1.0 mL of activated CHOD-iodide color reagent. Aliquot volume was reduced with each successive time point to ensure that spectrophotometric readings were within the optimal adsorption range. Test samples were covered and incubated in darkness at room temperature for at least 4 hr. Sample absorbances were then measured against a CHOD blank at 365 nm using a Beckman DU-640 spectrophotometer. The CHOD colorimetric assay is based on the oxidation of iodide (I^−) by lipid hydroperoxide (LOOH) to form triiodide (I3^−), the quantity of which is directly proportional to the amount of LOOH present in the lipid sample. The molar absorptivity (ε) of I3^− is 2.46×10^4 M^−1 cm^−1 at 365 nm.

[3] = 10 mg, administered for 12 weeks; cited from earlier work
HMG-CoA reductase = target: T1, HMG-CoA reductase (Homo sapiens, UniProt P04035); conditions: metabolized by hepatic cytochrome P450; cited from earlier work
T1 sequence (P04035 1-888): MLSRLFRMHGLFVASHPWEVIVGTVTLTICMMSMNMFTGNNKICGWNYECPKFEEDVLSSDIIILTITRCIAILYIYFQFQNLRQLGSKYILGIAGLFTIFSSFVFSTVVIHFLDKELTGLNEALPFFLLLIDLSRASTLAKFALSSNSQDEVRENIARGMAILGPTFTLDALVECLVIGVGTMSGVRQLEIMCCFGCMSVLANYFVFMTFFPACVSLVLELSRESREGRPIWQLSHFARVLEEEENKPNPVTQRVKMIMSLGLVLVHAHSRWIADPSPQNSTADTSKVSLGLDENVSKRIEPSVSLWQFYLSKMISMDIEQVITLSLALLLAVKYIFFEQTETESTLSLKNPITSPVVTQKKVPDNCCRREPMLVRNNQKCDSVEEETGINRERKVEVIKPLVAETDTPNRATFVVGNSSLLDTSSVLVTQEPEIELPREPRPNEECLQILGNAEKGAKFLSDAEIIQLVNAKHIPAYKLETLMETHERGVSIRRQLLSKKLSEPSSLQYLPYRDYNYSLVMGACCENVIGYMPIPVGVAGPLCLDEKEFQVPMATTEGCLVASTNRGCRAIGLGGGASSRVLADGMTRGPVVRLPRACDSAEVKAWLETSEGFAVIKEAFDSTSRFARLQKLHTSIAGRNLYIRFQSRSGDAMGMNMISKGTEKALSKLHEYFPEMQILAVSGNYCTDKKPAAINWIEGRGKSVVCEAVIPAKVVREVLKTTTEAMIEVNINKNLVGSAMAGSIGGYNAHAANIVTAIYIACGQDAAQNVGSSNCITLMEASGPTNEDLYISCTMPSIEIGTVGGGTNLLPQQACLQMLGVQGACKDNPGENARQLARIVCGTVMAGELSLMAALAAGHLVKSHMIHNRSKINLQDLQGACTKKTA

[4] = 80 mg for 16 weeks; 2,341 patients; cited from earlier work

CC(C)c1c(C(=O)Nc2ccccc2O)c(-c2ccccc2)c(-c2ccc(F)cc2)n1CC[C@@H](O)C[C@@H](O)CC(=O)O [ATM, Atorvastatin ortho-(o-) hydroxy (active) metabolite]
inhibition of sdLDL oxidation as compared to vehicle (human sdLDL; 1.0 μM (each agent), 1 hr): 18±5% | inhibition of sdLDL oxidation as compared to vehicle (human sdLDL; ATM 0.5 μM, alone or in combination with EPA 1.0 μM, 1 hr): 5±5% | inhibition of sdLDL oxidation (human sdLDL; ATM at the highest dose, 1 hr): 90±2% | effect on unfractionated LDL oxidation, dose dependence (human LDL; 1 hour): significant and dose-dependent inhibition of unfractionated LDL oxidation beginning at 1.0 μM | increase in NO release [1]: 205% | reduction of ONOO^− release [1]: 25% | antioxidant effect, separate treatments [2]: separate and potent antioxidant effects

CC(C)c1c(C(=O)Nc2ccccc2)c(-c2ccccc2)c(-c2ccc(F)cc2)n1CC[C@@H](O)C[C@@H](O)CC(=O)O [atorvastatin]
antioxidant activity, separately (human sdLDL; 10.0 μM, sdLDL): did not have any significant antioxidant activity | inhibition of sdLDL oxidation as compared to vehicle (human sdLDL; each agent at 10.0 μM, 1 hour (FIG. 17)): 0.1±7% | antioxidant activity, separately (human LDL; 10.0 μM, unfractionated LDL): did not have any significant antioxidant activity | circulating levels of chlorotyrosine, nitrotyrosine, and dityrosine [3]: significantly reduce circulating levels of chlorotyrosine, nitrotyrosine, and dityrosine | share of circulating HMG-CoA reductase inhibitory activity accounted for by the active metabolites (HMG-CoA reductase): approximately 70% | levels of oxidized lipids associated with all apoB100-containing lipid particles [4]: significant reduction in levels of oxidized lipids

Source: patent publication US20190054054A1, “Methods reducing or preventing oxidation of high density lipoprotein (HDL)” (Amarin Pharmaceuticals Ireland Limited, priority 2017, published 2019)
